Assay results reported in patent publication US5939403A, “Keratan sulfate oligosaccharide fraction and pharmaceutical containing the same” (Seikagaku Corporation, priority 1994, dated 1999).
Structures can show the parent of a compound that is named as a salt.

How the values were obtained:
carrageenin pleurisy = test: Carrageenin pleurisy model; format: in vivo, Female S.D. rats; conditions: six hours
Experimental: The effect of the keratan sulfate oligosaccharide was examined with the carrageenin pleurisy model of rats which is generally used for evaluation of anti-inflammatory agents.
Female S.D. rats (n=37) of about 150 to 170 g weight were used for the test. The λ-carrageenin (Sigma) was dissolved in saline to a concentration of 2%, and the solution was filtered with a 0.8 μm filter. The carrageenin solution obtained was intrathoracically administered at 100 μl/animal to prepare the pleurisy model.
To the pleurisy model of rats (n=19) described above, the keratan sulfate tetrasaccharide (I) dissolved in PBS was subcutaneously (s.c.) administered in 20 mg/kg or 10 mg/kg dose. And as the positive control, steroid (dexamethasone acetate; Banyu Pharmaceutical) was subcutaneously administered to the eight rats described above in 150 μg/kg which was the clinical dose. As the negative control, PBS was subcutaneously administered to the 10 rats. Each administration was carried out immediately after the administration of carrageenin.
Each rat was anatomized six hours after the administration of λ-carrageenin. The thoracic cavity of the rats was opened to collect the retained pleural fluid using a 2-ml syringe with probe. After that, inside of the thoracic cavity was washed with 1 ml of saline, and the washing solution was recovered. The volume of the pleural fluid recovered with the syringe was determined, and the number of leukocyte (cell number) in the pleural fluid was determined by an automatic cytometer. The results are be shown in FIG. 8 and FIG. 9, respectively. In the figures, * and ** represent that they have the significant difference with p<0.05 and p<0.01, respectively (wherein "p" means a level of significance by the Duncan test).

[1] = tested on: foot edema reversed passive Arthus reaction; test: Foot edema reversed passive Arthus reaction; format: in vivo, Male Crj:SD rats
Experimental: The effect of the keratan sulfate oligosaccharide was examined on the foot edema reversed passive Arthus reaction of rats, which is a type III allergic inflammation model. That is, the rabbit antiovalbumin serum was subcutaneously administered to the planta of the rats which were previously subjected to the administration of the test substances, furthermore ovalbumin was administered by injection into the caudal vein thereof to induce inflammation (edema), and the inhibitory effect on edema of the test substances was examined.
Male Crj:SD rats of five weeks old were subjected to a fast of about 17 hours after a week period of quarantine, and, before inducing inflammation, subjected to the administration of the purified keratan sulfate tetrasaccharide (I) which was prepared in Example 1, indomethacin (Sigma; Lot No. 19F0018), or dexamethasone (Banyu Pharmaceutical); Decadron injection; Lot No. 8D307P) as the test substances, or saline (Otsuka Pharmaceutical; Lot No. K3H72) as the negative control. The keratan sulfate tetrasaccharide (I) and dexamethasone were dissolved in saline, respectively, and the indomethacin was dissolved in 0.5% sodium carboxymethylcellulose (CMC-Na; Wako Pure Chemical Industries; Lot No. PTN1418) in use. The volume of dose was 0.5 ml per 100 g weight in each test. Concerning the route of administration, the keratan sulfate tetrasaccharide (I), saline, and dexamethasone were administered from the caudal vein, and the indomethacin was orally administered. And the substances except for indomethacin were administered by the blind method.
The dose and administration schedule of each test substance were as follows. Each group consisted of five animals.
The rabbit antiovalbumin serum was subcutaneously administered to each of the rats described above on the planta thereof, and ovalbumin was further administered by injection into the caudal vein to induce inflammation foot edema. The antiserum used was prepared as follows. That is, to the regions of back of rabbits, 1 ml of the equivalently mixed solution (emulsion) of the saline containing 2% ovalbumin (10 mg per one animal, Egg Albumin 5×Cryst, Lot No. P93601; Seikagaku Corporation) and the Freund's complete adjuvant (FCA) was intradermally injected once a week three times totally to subject themselves to sensitization. About 34 days after the last sensitization, the blood was drawn to obtain the antiserum. The antibody titer of the antiserum obtained was determined by the double layer method. Namely, the determination was performed using the white precipitation reaction of the antiserum diluted with saline and the saline containing 0.1% ovalbumin (1 mg/ml) as the indicator. As a result, the antibody titer of the antiserum obtained was x2^7.
After the period which is designed for each group, each 0.1 ml of the sixfold diluted antiserum was subcutaneously administered to the planta of left rear foot of the rats which were subjected to the administration of each test substance. Then, the saline containing 0.5% ovalbumin (25 mg/5 ml/kg) was administered into the caudal vein to induce inflammation. The volume of the treated feet in each group was determined before inducing inflammation, and one, two, three and four hours after inducing inflammation by a foot volume determining device (TK-101, Unicom) to yield the foot edematization rate from the difference from the value before the induction, and the edematization inhibitory rate of the test substance administered group to the control group was calculated. In each edematization rate obtained, the difference between the averages was tested by the minimum significant difference test. The foot edematization rate and the edematization inhibitory rate of each administered group are shown in Table 9, and the foot edematization rate of the administered groups which was subjected to the administration of the agent at five minutes and at three hours before inducing inflammation are shown in FIG. 6 and FIG. 7, respectively. […]

CC(=O)N[C@H]1[C@H](O[C@H]2[C@@H](O)[C@@H](COS(=O)(=O)O)O[C@@H](O[C@H]3[C@H](O)[C@@H](NC(C)=O)C(O)O[C@@H]3COS(=O)(=O)O)[C@@H]2O)O[C@H](COS(=O)(=O)O)[C@@H](O[C@@H]2O[C@H](COS(=O)(=O)O)[C@H](O)[C@H](O)[C@H]2O)[C@@H]1O (stereo partly drawn) [keratan sulfate tetrasaccharide (I), Gal(6S)β1-4GlcNAc(6S)β1-3Gal(6S)β1-4GlcNAc(6S)]
number of leukocyte in pleural fluid (FIG. 9) (carrageenin pleurisy; 10 mg/kg and 20 mg/kg s.c.): significantly less than that in the negative control group, and dose-dependent decrease was observed | volume of pleural fluid (FIG. 8) (carrageenin pleurisy; 10 mg/kg s.c.): significantly less than that in the negative control group | volume of pleural fluid (FIG. 8), dose comparison (carrageenin pleurisy; 10 mg/kg vs 20 mg/kg s.c.): almost same as that in the keratan sulfate tetrasaccharide (I) 20 mg/kg administered group | Inhibitory Rate ([1]; 1 Hour Later, 1 mg/kg i.v. at 5 minutes before inducing edema): 28.7% | Edematization Rate ([1]; 1 Hour Later, 1 mg/kg i.v. at 5 minutes before inducing edema, P < 0.01, control 40.9): 29.2 ± 1.3% | Inhibitory Rate ([1]; 1 Hour Later, 1 mg/kg i.v. at 3 hours before inducing edema): 13.4% | Edematization Rate ([1]; 1 Hour Later, 1 mg/kg i.v. at 3 hours before inducing edema, control 40.9): 35.4 ± 1.6% | Inhibitory Rate ([1]; 1 Hour Later, 3 mg/kg i.v. at 5 minutes before inducing edema): 15.8% | Edematization Rate ([1]; 1 Hour Later, 3 mg/kg i.v. at 5 minutes before inducing edema, control 40.9): 34.4 ± 5.2% | Inhibitory Rate ([1]; 1 Hour Later, 3 mg/kg i.v. at 3 hours before inducing edema): 10.6% | Edematization Rate ([1]; 1 Hour Later, 3 mg/kg i.v. at 3 hours before inducing edema, control 40.9): 36.5 ± 3.5% | Inhibitory Rate ([1]; 1 Hour Later, 10 mg/kg i.v. at 5 minutes before inducing edema): 28.9% | Edematization Rate ([1]; 1 Hour Later, 10 mg/kg i.v. at 5 minutes before inducing edema, P < 0.01, control 40.9): 29.1 ± 3.7% | Inhibitory Rate ([1]; 1 Hour Later, 10 mg/kg i.v. at 3 hours before inducing edema): -8.1% | Edematization Rate ([1]; 1 Hour Later, 10 mg/kg i.v. at 3 hours before inducing edema, control 40.9): 44.2 ± 3.4% | Inhibitory Rate ([1]; 2 Hours Later, 1 mg/kg i.v. at 5 minutes before inducing edema): 36.5% | Edematization Rate ([1]; 2 Hours Later, 1 mg/kg i.v. at 5 minutes before inducing edema, P < 0.01, control 46.3): 29.4 ± 2.9% | Inhibitory Rate ([1]; 2 Hours Later, 1 mg/kg i.v. at 3 hours before inducing edema): 8.4% | Edematization Rate ([1]; 2 Hours Later, 1 mg/kg i.v. at 3 hours before inducing edema, control 46.3): 42.4 ± 3.6% | Inhibitory Rate ([1]; 2 Hours Later, 3 mg/kg i.v. at 5 minutes before inducing edema): 8.6% | Edematization Rate ([1]; 2 Hours Later, 3 mg/kg i.v. at 5 minutes before inducing edema, control 46.3): 42.3 ± 4.2% | Inhibitory Rate ([1]; 2 Hours Later, 3 mg/kg i.v. at 3 hours before inducing edema): 23.9% | Edematization Rate ([1]; 2 Hours Later, 3 mg/kg i.v. at 3 hours before inducing edema, P < 0.01, control 46.3, 3 mg/kg): 35.3% | Edematization Rate ([1]; 2 Hours Later, 3 mg/kg i.v. at 3 hours before inducing edema, P < 0.01, control 46.3, listed as Keratan Sulfate Tetrasaccharide (I), 3 mg/kg): 35.3 ± 2.3% | Inhibitory Rate ([1]; 2 Hours Later, 10 mg/kg i.v. at 5 minutes before inducing edema): 9.1% | Edematization Rate ([1]; 2 Hours Later, 10 mg/kg i.v. at 5 minutes before inducing edema, control 46.3): 42.1 ± 2.9% | Inhibitory Rate ([1]; 2 Hours Later, 10 mg/kg i.v. at 3 hours before inducing edema): 0.4% | Edematization Rate ([1]; 2 Hours Later, 10 mg/kg i.v. at 3 hours before inducing edema, control 46.3): 46.1 ± 2.6% | Inhibitory Rate ([1]; 3 Hours Later, 1 mg/kg i.v. at 5 minutes before inducing edema): 17.0% | Edematization Rate ([1]; 3 Hours Later, 1 mg/kg i.v. at 5 minutes before inducing edema, P < 0.01, control 51.2): 42.3 ± 3.6% | Inhibitory Rate ([1]; 3 Hours Later, 1 mg/kg i.v. at 3 hours before inducing edema): 8.4% | Edematization Rate ([1]; 3 Hours Later, 1 mg/kg i.v. at 3 hours before inducing edema, control 51.2): 46.7 ± 2.6% | Inhibitory Rate ([1]; 3 Hours Later, 3 mg/kg i.v. at 5 minutes before inducing edema): 9.5% | Edematization Rate ([1]; 3 Hours Later, 3 mg/kg i.v. at 5 minutes before inducing edema, control 51.2): 46.1 ± 2.2% | Inhibitory Rate ([1]; 3 Hours Later, 3 mg/kg i.v. at 3 hours before inducing edema): 21.5% | Edematization Rate ([1]; 3 Hours Later, 3 mg/kg i.v. at 3 hours before inducing edema, P < 0.01, control 51.2): 40.1 ± 2.8% | Inhibitory Rate ([1]; 3 Hours Later, 10 mg/kg i.v. at 5 minutes before inducing edema): 12.3% | Edematization Rate ([1]; 3 Hours Later, 10 mg/kg i.v. at 5 minutes before inducing edema, control 51.2): 44.8 ± 5.1% | Inhibitory Rate ([1]; 3 Hours Later, 10 mg/kg i.v. at 3 hours before inducing edema): 18.7% | Edematization Rate ([1]; 3 Hours Later, 10 mg/kg i.v. at 3 hours before inducing edema, P < 0.01, control 51.2, 10 mg/kg): 41.5% | Edematization Rate ([1]; 3 Hours Later, 10 mg/kg i.v. at 3 hours before inducing edema, P < 0.01, control 51.2, listed as Keratan Sulfate Tetrasaccharide (I), 10 mg/kg): 41.5 ± 1.8% | Inhibitory Rate ([1]; 4 Hours Later, 1 mg/kg i.v. at 5 minutes before inducing edema): 11.3% | Edematization Rate ([1]; 4 Hours Later, 1 mg/kg i.v. at 5 minutes before inducing edema, control 44.9): 39.8 ± 3.0% | Inhibitory Rate ([1]; 4 Hours Later, 1 mg/kg i.v. at 3 hours before inducing edema): 15.5% | Edematization Rate ([1]; 4 Hours Later, 1 mg/kg i.v. at 3 hours before inducing edema, P < 0.05, control 44.9, 1 mg/kg): 38% | Edematization Rate ([1]; 4 Hours Later, 1 mg/kg i.v. at 3 hours before inducing edema, P < 0.05, control 44.9, listed as Keratan Sulfate Tetrasaccharide (I), 1 mg/kg): 38.0 ± 3.5% | Inhibitory Rate ([1]; 4 Hours Later, 3 mg/kg i.v. at 5 minutes before inducing edema): 17.1% | Edematization Rate ([1]; 4 Hours Later, 3 mg/kg i.v. at 5 minutes before inducing edema, P < 0.05, control 44.9, 3 mg/kg): 37.2% | Edematization Rate ([1]; 4 Hours Later, 3 mg/kg i.v. at 5 minutes before inducing edema, P < 0.05, control 44.9, listed as Keratan Sulfate Tetrasaccharide (I), 3 mg/kg): 37.2 ± 3.1% | Inhibitory Rate ([1]; 4 Hours Later, 3 mg/kg i.v. at 3 hours before inducing edema): 24.4% | Edematization Rate ([1]; 4 Hours Later, 3 mg/kg i.v. at 3 hours before inducing edema, P < 0.01, control 44.9): 33.9% | Inhibitory Rate ([1]; 4 Hours Later, 10 mg/kg i.v. at 5 minutes before inducing edema): 21.2% | Edematization Rate ([1]; 4 Hours Later, 10 mg/kg i.v. at 5 minutes before inducing edema, P < 0.01, control 44.9): 35.4% | Inhibitory Rate ([1]; 4 Hours Later, 10 mg/kg i.v. at 3 hours before inducing edema): 23.2% | Edematization Rate ([1]; 4 Hours Later, 10 mg/kg i.v. at 3 hours before inducing edema, P < 0.01, control 44.9): 34.5% | foot edematization rate, significance (result in words) ([1]; after an hour, administration at five minutes before inducing inflammation): the significant difference was observed in the 1 mg/kg administered group and the 10 mg/kg administered group | foot edematization rate, significance (result in words) ([1]; an hour after inducing inflammation, administration at three hours before): significant difference was not observed an hour after inducing inflammation
